According to patent publication US9630935B2, “Compositions for the treatment of hypertension and/or fibrosis” (Vectus Biosystems Limited, priority 2013, dated 2017):

Columns and labels:
[1] = test system: spontaneous hypertensive rats (SHR); assay: Oral study in SHR on 2.2% salt diet: blood pressure by tail cuff plethysmography; type: in vivo, rat; conditions: 4 weeks treatment, 100 or 500 pmol/kg/min orally in drinking solution, compared to controls (FIG. 13)
Description: (§1) Fourteen week old SHR (on a 2.2% salt diet; Glen Forrest Stockfeeders) were randomly assigned to zero time control, test compound treatment (100 or 500 pmol/kg/min) in the drinking solution or control drinking solution (5% ethanol in deionised distilled water (n=5 each group). The rats assigned to zero time control group were anaesthetised and had their heart and kidneys harvested while rats assigned to control and test compound treatment were weighed twice weekly and had their drinking solution intake monitored to allow adjustment of the test compound concentration in the drinking solution to maintain a constant dose over the 4-week study period. Blood pressure was measured twice weekly by tail cuff plethysmography (PowerLab, ADInstruments, Castle Hill, NSW, Australia).

[2] = test system: spontaneous hypertensive rats (SHR); assay: Oral study in SHR on 2.2% salt diet: myocardial fibrosis, histomorphometry on Masson's trichrome stained sections; type: in vivo, rat; conditions: for Fibrosis in the heart: 18 week old SHR on 2.2% salt diet, 4 weeks treatment, 500 pmol/kg/min orally, compared to controls (FIG. 16); for Histological sections from the hearts (micrographs): rats on 2.2% salt diet treated four weeks with 500 pmol/kg/min, control has extensive fibrosis (FIG. 20)
Description: as §1
(§2) After 4 weeks rats were anaesthetised, and their hearts and kidneys harvested for quantitation of fibrosis.
(§3) To quantitate tissue fibrosis tissue slices ≦3 mm thick were fixed in 10% buffered formalin for 24 hours, processed and embedded in paraffin. Three micron transverse sections were stained using Masson's trichrome stain. A minimum of […] random fields at magnification ×20 from transverse sections (5 at each of 2 levels) were digitized and the degree of fibrosis determined as a percent of field area of each digitized image using Image-Pro Plus V.7 (Media Cybernetics, Bethesda, Md., USA) then averaged to determine the level of fibrosis for tissue for each rat.

[3] = test system: spontaneous hypertensive rats (SHR); assay: Oral study in SHR on 2.2% salt diet: kidney interstitial fibrosis, histomorphometry on Masson's trichrome stained sections; type: in vivo, rat; conditions: for Fibrosis in the kidney: 18 week old SHR on 2.2% salt diet, 4 weeks treatment, 500 pmol/kg/min orally, compared to controls (FIG. 17); for Histological sections from the kidneys (micrographs): rats on 2.2% salt diet treated four weeks with 500 pmol/kg/min, control has extensive fibrosis (FIG. 21)
Description: as §1, §2, §3

Row | melting point [°C] | SMILES | Mean diastolic blood pressure [1] | Mean systolic blood pressure [1] | Fibrosis in the heart [2] | Histological sections from the hearts (micrographs) [2] | Fibrosis in the kidney [3] | Histological sections from the kidneys (micrographs) [3]
1 | 250 to 251 | NC(=O)CCc1cc(-c2ccccc2)ccc1-c1ccc2[nH]c(=O)[nH]c2c1 [T31, 3-(4-(2-Oxo-2,3-dihydro-1H-benzo[d]imidazol-5-yl)-[1,1′-biphenyl]-3-yl)propanamide] | decreased compared to controls | decreased blood pressure compared to controls | decreased compared to controls | no discrete areas of fibrosis are present | decreased compared to controls | fibrosis has been reduced to thin bands incompletely surrounding some but not all tubules
2 | 248 to 249 | NC(=O)CCc1cc(-c2ccccc2)ccc1-c1ccnc(N)c1 [T48, 3-(4-(2-Aminopyridin-4-yl)-[1, 1′-biphenyl]-3-yl)propanamide] |  | decreased blood pressure compared to controls | decreased compared to controls |  | decreased compared to controls | 

Second part, the compound before the results:

Row | SMILES | melting point [°C] | Mean diastolic blood pressure [1] | Mean systolic blood pressure [1] | Fibrosis in the heart [2] | Histological sections from the hearts (micrographs) [2] | Fibrosis in the kidney [3] | Histological sections from the kidneys (micrographs) [3]
3 | CS(=O)(=O)Nc1cccc(-c2ccc(-c3ccccc3)cc2CCC(N)=O)c1 [T1, 3-(3-(Methylsulfonamido)-[1,1′:4′,1″-terphenyl]-2′-yl)propanamide] |  | decreased compared to controls | decreased blood pressure compared to controls | decreased compared to controls | no discrete areas of fibrosis are present | decreased compared to controls | fibrosis has been reduced to thin bands incompletely surrounding some but not all tubules
4 | NC(=O)CCc1cc(-c2ccccc2)ccc1-c1cccc(NC=O)c1 [T2, 3-(3-Formamido-[1,1′:4′,1″-terphenyl]-2′-yl)propanamide] |  | decreased compared to controls | decreased blood pressure compared to controls | decreased compared to controls | no discrete areas of fibrosis are present | decreased compared to controls | fibrosis has been reduced to thin bands incompletely surrounding some but not all tubules
5 | NC(=O)CCc1cc(-c2ccccc2)ccc1-c1cc(O)cc(O)c1 [T20, 3-(3,5-Dihydroxy-[1,1′:4′,1″-terphenyl]-2′-yl)propanamide] | 232 to 233 |  | decreased blood pressure compared to controls | decreased compared to controls | no discrete areas of fibrosis are present | decreased compared to controls | fibrosis has been reduced to thin bands incompletely surrounding some but not all tubules
6 | NC(=O)CCc1cc(-c2ccccc2)ccc1-c1ccc2c(c1)NC(=O)C2 [T25, 3-(4-(2-Oxoindolin-6-yl)-[1,1′-biphenyl]-3-yl)propanamide] | 219 to 222 |  |  |  |  |  | 
7 | CS(=O)(=O)Nc1cc(NS(C)(=O)=O)cc(-c2ccc(-c3ccccc3)cc2CCC(N)=O)c1 [T70, 3-(3,5-Di(methylsulfonamido)-[1,1′:4′,1″-terphenyl]-2′-yl)propanamide] |  | decreased compared to controls | decreased blood pressure compared to controls | decreased compared to controls |  | decreased compared to controls | 
